# Patent US20210009682A1, “REDUCING CUTANEOUS SCAR FORMATION AND TREATING SKIN CONDITIONS” (Northwestern University, priority 2013, published 2021)
# Entries after “also recorded” stand apart in the source; their conditions may differ. Structures can show the parent of a compound that is named as a salt.
# How the values were obtained:
# dermal fibroblasts = experiment: Activation of dermal fibroblasts (α-SMA and pro-Col I expression) by HaCaT condition medium; type: cell-based, human; details: for activation of fibroblasts: PGE2 receptor blockade in condition medium from HaCaT with increased water loss
# Description: FIGS. 3A-C. ENaC senses sodium concentration changes in keratinocytes and regulates downstream genes. Stratified HaCaT and fibroblast were co-cultured in transwell plates and subjected to increased water loss and control conditions for 16 hours. Expression of α-SMA and pro-Col I was detected in dermal fibroblasts (HDF) with their specific antibodies and visualized with fluorescence labeled secondary antibodies, Nuclei were stained with DAPI. (FIG. 3A, Panels A-D) Stratified HaCaT and fibroblasts in control condition. (FIG. 3A, Panels E-H) Stratified HaCaT and fibroblasts in increased water loss condition. (FIG. 3A, Panels I-L) Stratified ENaC knockdown HaCaT and fibroblasts in control condition. (FIG. 3A, Panels M-P) Stratified ENaC knockdown HaCaT and fibroblasts in increased water loss condition. (FIGS. 3B-C) The quantification of expression levels of α-SMA and pro-Col I by ImageJ. The scale bar represents 100 μm. *p<0.05, **p<0.01.
# FIGS. 4A-C. Show results from Example 1 where it was determine that PGE2 is important for the activation of fibroblasts by keratinocytes. As described in Example 1, condition medium of stratified wild type (or ENaC knockdown) HaCaT culture under increased water loss was collected and supplemented to fibroblasts for 24 hours. Expression of α-SMA and pro-collagen I in dermal fibroblasts was tested as described in
# FIG. 3. (FIG. 4A, Panels A-D) Wild type HaCaT condition medium (CM). (FIG. 4A, Panels E-H) ENaC-knockdown HaCaT condition medium. (FIG. 4A, Panels I-L) ENaC-knockdown HaCaT condition medium plus 10 μM of PGE2. (FIGS. 4B-C) Quantification of expression levels of α-SMA (FIG. 4B) and pro-Col I (FIG. 4C) was performed by ImageJ. The scale bar represents 100 μm. **p<0.01.
# Since the PGE2 is a downstream product of COX-2 and found to be involved in regulation of fibroblast cytoskeletal dynamics during airway epithelium injury (37), it was hypothesized that PGE2 signaling is important for keratinocyte-fibroblast signaling. […]
# [1] = test system: rabbit ear hypertrophic scar; experiment: Hypertrophic scar model in the rabbit ear (scar elevation index); type: in vivo; details: for scar elevation index (SEI): topical, harvested POD28
# Description: As described in Example 1, full thickness 7 mm excision wounds were made on the ventral side of the rabbit ears at PODO. Amiloride (an ENaC inhibitor) or Celecoxib (a COX-2 inhibitor) was applied to the wounds every other day for a total of three times starting at POD14. Wounds harvested at POD28 and histological analysis was performed. (A-D) Representative pictures of wound histology at POD28. Rabbit ear wounds with Amiloride treatment (B) and control (A) and with Celecoxib treatment (D) and its control (C) are shown. (E) The scar elevation index (SEI) was calculated and used to evaluate the scar formation. (F. G) SEI. Twelve wounds for each dose of treatment and 12 controls were used for the analysis. *P<0.05. Scar bar stands for 1000 μm. **p<0.01. […] The present invention is not limited by such a mechanism and an understanding of the mechanism is not necessary to practice the present invention.
# Sustained activation of dermal fibroblasts with accumulation of collagen is the main cause of hypertrophic scars (38, 39). […] The role of the ENaC-COX-2 pathway was investigated in vivo utilizing a well validated hypertrophic scar model in the rabbit ear (31, 40-43). Amiloride, an ENaC antagonist, was topically applied to the rabbit ear wounds after re-epithelialization was complete. Control scars, located on the contralateral ear, were treated with vehicle alone. In this model, absence of scar elevation gives a scar elevation index (SEI) of 1.0, and control wounds heal with an elevated scar (SEI >1). […] This reduction in scarring exceeds other therapies in validated model of hypertrophic scarring (14, 44, 45). In an identically designed experiment, Celecoxib, a COX-2 inhibitor, was applied on rabbit ear wounds to evaluate its effect on formation of hypertrophic scars. Similarly, treatment of 2 mg/wound of Celecoxib on rabbit ear wounds reduced the hypertrophy of the scar from 1.53±0.10 to 1.23±0.07 (FIG. 5C, D, and G).
# [2] = test system: stratified keratinocytes (HaCaT); experiment: Sodium flux by scanning ion-selective electrode technique (SIET) in stratified keratinocyte culture with increased water loss; type: cell-based, human; set-up: dose or concentration left out as unconfirmed; details: amiloride
# Description: As described in Example 1, HESCs or stratified keratinocytes (HaCaT) were cultured for 16 hours in the indicated conditions and ion fluxes were measured immediately after the samples were submerged in the bathing buffer. Sodium flux in HESCs culture with increased water loss (A) or increased media sodium concentration (10% more than control) (B). Sodium flux in stratified keratinocytes culture with increased water loss (C) or sodium concentration (D). Calcium (E) or chloride (F) flux in stratified keratinocytes culture with increased water loss. (G) Sodium flux in amiloride treated stratified keratinocytes culture with increased water loss. […] Background readings were obtained more than 1000 μm away from the sample. *p<0.05, **p<0.01.
# Increased trans-epidermal water loss results in higher sodium flux. To estimate the change of sodium flux of skin, the sodium flux was measured in human ex vivo skin culture (HESC), which retains important elements of in vivo skin and recapitulates the features of human wound repair (25, 26). […] To validate increased TEWL, expression levels of aquaporin 3 (AQP3) were measured, which has been reported as a molecular marker to indicate the hydration conditions of skin (27, 28). […]
# Changes in sodium flux were evaluated using a scanning ion-selective electrode technique (SIET). […]
# COX-2 [3] = experiment: COX-2 mRNA expression by RT-qPCR in human foreskin keratinocytes (HK) culture; type: cell-based; details: HKs with calcium channel blocked
# Description: FIGS. 2A-F. Regulation of COX-2 and PGE2 by sodium flux is mediated by ENaC. FIGS. A and B show mRNA expression analysis of COX-2 as described in Example 1. (A) COX-2 mRNA expression in HESCs. HESCs were cultured with increased water loss condition for 4 or 16 hours (n=4). Total RNAs were isolated and RT-qPCR was performed. Gene expression was normalized according to the expression level of GAPDH. The level of COX-2 expression in HESCs treated with increased water loss was compared to that in control cells, which was set at 100% as expression level. (B) COX-2 mRNA expression keratinocytes culture. Stratified wild type or ENaC-knockdown HaCaT cells were cultured with increased water loss or sodium concentration condition for 16 hours (n=4). (C) PGE2 protein expression. Monolayer wild type or ENaC-knockdown HaCaT cells were cultured with increased sodium concentration condition for 16 hours (n=4). The amount of PGE2 in culture medium was measured by ELISA. (D) Western blot analysis (n=4). […] After 10, 30, 60, 240 minutes treatment, samples were harvested and western blot was performed with antibodies against phosphorylated-Akt, and Akt. β-actin was detected as a loading control. […] Cox-2 mRNA (E) and PGE2 (F) protein expression were analyzed by RT-qPCR and ELISA. *p<0.05, **p<0.01. […]
# COX-2 [4] = experiment: Expression of COX-2 in keratinocytes incubated with trypsin; type: cell-based, human; details: for up-regulation of COX-2: high concentration of sodium stimulation
# IL-8 = experiment: Expression of IL-8 in keratinocytes incubated with trypsin; type: cell-based, human; details: for up-regulation of IL-8: high concentration of sodium stimulation
# Excerpt: (§1) FIGS. 9A-I. Prss8 is an important protein downstream of Nax. […] As a primary function, Prss8 can activate ENaC by cleaving its a subunit. The cleaved and non-cleaved bands can be visualized by an ENaC specific protein with western blotting (H). […] However, the cleavage of the ENaC a subunit was enhance by trypsin in Nax knockdown keratinocytes (H and I). FIG. 10. The keratinocytes differentiation with or without knockdown of Nax. Keratinocytes can be differentiated in differentiation medium to form a multiple cell layer structure like skin epidermis (Panel A). […] Knockdown of Nax inhibited the keratinocyte differentiation (Panel B) with the absence of K10 marker in the cell (Panel E). […] The expression of differentiation markers are similar to the differentiated wild type keratinocytes.
# (§2) To further confirm the pathway of Nax-Prss8-ENaC, a Prss8 homolog, trypsin was used to activate the ENaC with the knockdown of Nax.
# IL-1β = experiment: Expression of IL-1β in keratinocytes incubated with trypsin; type: cell-based, human; details: for up-regulation of IL-1β: high concentration of sodium stimulation
# Excerpt: as §1, §2
# ENaC a subunit = experiment: Cleavage of the ENaC α subunit by western blotting in keratinocytes; type: cell-based, human; details: Nax knockdown keratinocytes
# Excerpt: as §1
# keratinocytes = experiment: Keratinocyte differentiation in differentiation medium (K14/K10 markers); type: cell-based, human; details: Nax knockdown keratinocytes, daily incubation with differentiation medium containing 10 ug/ml trypsin
# Excerpt: as §1, §2
# [5] = wild type keratinocytes, 10 μg/ml trypsin
molecule,measurement,setting,value
CC(C)Oc1ccc2c(=O)c3cc(C(=O)O)ccc3oc2c1 [AH6809],activation of fibroblasts,dermal fibroblasts,reduced activation of fibroblasts to control levels
CCCCCC(O)CCC1CCC(=O)N1CCCCCCC(=O)O (centres unmarked) [CAY10580],activation of fibroblasts,dermal fibroblasts,reduced activation of fibroblasts to control levels
Cc1ccc(-c2cc(C(F)(F)F)nn2-c2ccc(S(N)(=O)=O)cc2)cc1 [Celecoxib],scar elevation index (SEI),"[1]; rabbit ear wounds, 2 mg/wound",1.23±0.07
"CCCCC[C@H](O)/C=C/[C@H]1[C@H](O)CC(=O)[C@@H]1C/C=C\CCCC(=O)O [PGE2, prostaglandin E2]",activation of fibroblasts (α-SMA and pro-Col I),"dermal fibroblasts; 10 μM PGE2 added to ENaC knockdown HaCaT culture conditioned medium, 24 hours",successfully rescued
N=C(N)NC(=O)c1nc(Cl)c(N)nc1N [amiloride],enhanced sodium flux due to increased water loss,[2],completely abolished
same,scar formation / hypertrophy of rabbit ear scar (in words),"[1]; rabbit ear scar treatment, 28 days post wounding",clearly showed the improvement of the scar formation
same,reduction of scar formation compared to control wound healing groups,"[1]; rabbit ear wounds, lower concentrations",did not show significant reduction
same,scar elevation index (SEI),"[1]; rabbit ear wounds, 0.5 mg/wound",1.06±0.05
COC(=O)C1=C(C)NC(C)=C(C(=O)OC2CCCN(Cc3ccccc3)C2)C1c1cccc([N+](=O)[O-])c1 (centres unmarked) [benidipine hydrochloride],increased expression levels of COX-2 during increased water loss or sodium concentration,COX-2 [3],not abolished
trypsin,up-regulation of COX-2,COX-2 [4]; ENaC knockdown keratinocytes,but not in ENaC knockdown cells
same,up-regulation of COX-2,COX-2 [4]; Nax knockdown keratinocytes,recovered the up-regulation; also recorded: up-regulated
same,expression of COX-2,COX-2 [4]; [5],significantly increased
same,up-regulation of IL-8,IL-8; ENaC knockdown keratinocytes,recovered the up-regulation
same,up-regulation of IL-8,IL-8; Nax knockdown keratinocytes,recovered the up-regulation; also recorded: up-regulated
same,expression of IL-8,IL-8; [5],significantly increased
same,up-regulation of IL-1β,IL-1β; ENaC knockdown keratinocytes,recovered the up-regulation
same,up-regulation of IL-1β,IL-1β; Nax knockdown keratinocytes,recovered the up-regulation; also recorded: up-regulated
same,expression of IL-1β,IL-1β; [5],significantly increased
same,cleavage of the ENaC a subunit,ENaC a subunit,enhance
same,differentiation of keratinocytes,keratinocytes,re-established the differentiation; also recorded: successfully recovered the differentiation
